Reference: US6083941A, “Inhibition of NMDA receptor activity by pregnenolone sulfate derivatives” (Trustees of Boston University, priority 1998, dated 2000)
≈ marks a conversion by molar mass, not a printed value.

Key:
[1] = Maximal solubility in the external buffer; type: physicochemical; settings: pH 7.2, aqueous buffer, 0.5% dimethyl sulfoxide
[2] = system: NMDA receptor; experiment: Whole cell patch clamp, NMDA-induced current in cultured chick spinal cord neurons; type: cell-based
Method: Cultures of dissociated spinal cord neurons were prepared as previously described (Farb, D. H., et al., J. Cell Biol., 80:651-661 (1979)). Briefly, the dissociated cells from 7-day chick embryos were plated on collagen-coated 35-mm tissue culture dishes in Eagle's minimum essential medium supplemented with 2.4 mM glutamine, 10% (v/v) heat-inactivated horse serum, 5% (v/v) chick embryo extract and antibiotics. Cultures were maintained in a humidified atmosphere of 5% CO2, 95% air at 37°. Cytarabine (1 μM) was added to the culture medium after 36 hr. of the initial plating to inhibit the proliferation of non-neuronal cells. One day later, this medium was replaced with a similar medium supplemented with 20.5 mM glucose, 19 mM KCl, and 2.5% chick embryo extract. Fresh medium was added twice weekly. Cultured neurons were used in experiments within 2-4 weeks after plating.
Experiments were carried out in 35-mm tissue culture dishes on the stage of an inverted phase contrast microscope. Whole cell currents were recorded by the whole cell variant of the patch clamp technique (Hamill, O. P., et al., Pfagers Arch. 891:85-100 (1981)). Patch electrodes had tip openings of about […] and resistances of 3-8 M.OMEGA. using an intracellular solution comprised of the following (in mM): 140 CsCl, 11 EGTA, and 10 HEPES (pH adjusted to 7.2 with CsOH). In experiments in which a high concentration of glycine was used, the intracellular solution was replaced with a low chloride (10 mM) pipette solution. This solution contained the following (in mM): 140 potassium gluconate, 10 KCl, 8 sodium gluconate, 11 EGTA, and 10 HEPES (pH adjusted to 7.2 with KOH). To prevent a marked run-down of NMDA-induced current at high NMDA concentrations, 4 mM potassium ATP was included in the intracellular solution. The bath solution contained the following (in mM): 150 NaCl, 4 KCl, 1 CaCl2, and 10 HEPES (pH adjusted to 7.2 with NaOH). No glycine was added to the solutions containing NMDA, because no additional glycine was required to obtain a robust NMDA response, and there was no effect of a maximal concentration (10 μM) of glycine on 5β3αS inhibition of the NMDA response. All experiments were performed at room temperature (23-25° C.).
Recordings were made using an Axopatch 1B patch clamp apparatus (Axon Instruments, Burlingame, Calif.). Cells with series resistances greater than 10 M.OMEGA. were rejected. After partial compensation, series resistances were between 3.5 and 6 M.OMEGA.. The holding potential was maintained at -70 mV unless otherwise noted. Currents were filtered at 1 kHz using an eight-pole Bessel filter (-3 dB) and digitized ([…]) using an on-line data acquisition system (pClamp, Axon Instruments).
Drug solutions were applied to single neurons by pressure ejection (15 psi) from seven-barrel pipettes. Seven-barrel pressure pipettes were positioned approximately […] from the neuronal soma. Under these conditions, the drug solution in the pressure pipette rapidly and effectively replaces the solution surrounding the target neurons with less than 10% dilution (Choi, D. W., et al., Nature (Lond.) 269:342-344 (1977); Chan, C. Y., et al., Life Sci., 83:2061-2069 (1983); Chan, C. Y. and Farb, D. H., J. Neurosci., 5:2365-2373 (1985)). All drugs were obtained from Sigma, with the except of AMPA hydrobromide (Research Biochemicals) and steroids (Steraloids). Stock solutions of steroids were prepared in dimethyl sulfoxide, the final concentration of which was 0.5% (v/v). To obviate the possible effects of dimethyl sulfoxide on the relevant agonist-induced currents, all other drug solutions including NMDA, kainate, AMPA and external buffer (in the pressure pipette) also contained 0.5% dimethyl sulfoxide. […]

Compound: CC(=O)[C@H]1CC[C@H]2[C@@H]3CC[C@@H]4C[C@H](O)CC[C@]4(C)[C@H]3CC[C@]12C [5β3α, reference compound]
- solubility [1]: 50 µM (≈ 15.9 µg/mL)
- potentiation of the 30 μM NMDA-induced current ([2]; 50 μM nonsulfated steroid): 3.6±8.4%
- effect on the NMDA response ([2]; 60 μM nonsulfated steroid): does not produce any significant effect
